In turn, `Clc1ccc(-c2cc(C3CCN(CCc4ccccc4)CC3)n[nH]2)cc1` showed a melting point of 169 to 171 °C.
As for `c1cncc(NC2CCNCC2)c1`, the figure is 127 to 129 °C; as for `COCOc1cc(C(F)(F)F)ccc1-c1cc(Oc2ccc3cccnc3c2)ncn1`, 98.8 to 99.4 °C.
`N#Cc1ccc(Nc2cc(Cc3c(Cl)cccc3Cl)nc(NCCCN3CCCC3=O)n2)cc1` yielded a melting point of 104 to 114 °C.
`CCC(CC)N(Cc1ccc(C#N)cc1)S(=O)(=O)c1ccc(Cl)cc1`: the melting point is 123 to 125 °C.
As for `O=C(O)c1cccc(-c2coc3c(O)c(O)ccc3c2=O)c1`, the figure is 313 to 314 °C.
On to `CCOC(=O)C1=C(C)NC(c2cscn2)=NC1c1cccc(Cl)c1` (stereo not drawn), for which the melting point fell in the range of 105 to 108 °C.
In the case of `COCCOc1cc2ncnc(NC3=CC(=O)C4(Cc5ccccc5)OC4C3=O)c2cc1OC` (stereo not drawn) it was 104 to 108 °C; in that of `Cc1cc2c(cc1C)N(C)C(=O)c1cccnc1N2`, 206 to 209 °C.
In turn, `CCc1nc(-c2cccc(C)c2)c(-c2ccnc(N(C)C(=O)Cc3ccccc3)c2)s1` had a melting point of 75 to 76 °C.
Compound `CNC[C@@H](O)c1cnccn1` registered a melting point of 78 to 81 °C.
In the case of `COc1cc2ncnc(N3CCc4cc(F)ccc43)c2cc1OC` it was 190 to 191 °C; in that of `COc1cc(C(=O)c2ncc3ccc(NS(C)(=O)=O)cn23)ccc1[N+](=O)[O-]`, 249 °C; in that of `Cc1cc(C(=O)CCc2cc(-c3ccc(C(F)(F)F)cc3)nn2Cc2ccccc2)ccc1OC(C)(C)C(=O)O`, 55 °C.
Compound `CCNC(=O)ON1C(=O)CCC1=O` returned a melting point of 131 to 133 °C.
`FC(F)(F)c1ccc(Cl)cc1CN1CCNc2ncc(-c3ccnc(N4CCNCC4)c3)cc21`: the melting point is 189 °C.
As for `O=C(Cc1c[nH]c2ccccc12)OCc1ccccc1`, the figure is 71 to 72 °C; as for `CC(C)c1nn(-c2ccc(C(F)(F)F)cn2)cc1CCCOc1nn(C)cc1CCC(=O)O`, 124 to 125 °C.
In the case of `COc1cc(Nc2c(C#N)cnc3cc(-c4cccc5ccccc45)ccc23)c(Cl)cc1Cl` it was 192 to 193 °C; in that of `COc1nc(Cl)cc2nccn12`, 115 to 118 °C; in that of `CCCc1c(OCCCOc2ccc(-c3cscn3)c(OC)c2CCC)ccc2c1OC(CCC(=O)O)CC2` (stereo not drawn), 110 to 113 °C.
As for `CC[C@H](O)C(=O)N1CCC(Oc2cc3ncnc(Nc4cccc(Cl)c4F)c3cc2OC)CC1`, the figure is 152 to 153 °C; as for `CCOc1ccc(C2=NN(c3ccc(C(=O)N4CCS(=O)(=O)CC4)cc3)C(=O)[C@H]3CC=CC[C@@H]23)cc1OCC` (relative stereo), 186 to 187 °C.
With `CCN(CC)CC(=C1NCCCS1)[N+](=O)[O-]`, the melting point lay within 68 to 69 °C.
In turn, `FC(F)(F)Oc1ccc2[nH]c(-c3ccco3)nc2c1` came in with a melting point of 165 to 167 °C.
As for `COc1ccc2c(cccc2[C@H]2CO[C@H](CCCNC(=O)OCc3nccn3C(c3ccccc3)(c3ccccc3)c3ccccc3)OC2)c1`, the figure is 130 to 132 °C.
As for `Cc1ccc(OCC(CO)NC(C)(C)C)c(-c2ccc(=S)[nH]n2)c1` (stereo not drawn), the figure is 130 °C; as for `O=C1CC2(CCCC2)CC(=O)N1CCCCN1CCN(c2nsc3ccccc23)CC1`, 128 to 130 °C; as for `CC(=O)Nc1nc2c(Oc3cc(-c4ccc5c(c4)OC(C)(C)C5)ncn3)cccc2s1`, 224 to 225 °C.
As for `Cc1cccc2nc3c(=O)[nH][nH]c(=O)c3c(O)c12`, the figure is 167 to 168 °C; as for `CS(=O)(=O)Nc1ccc(N2CCC(O)CC2)cc1`, 126 to 129 °C; as for `Cc1c(Br)ccc(F)c1N`, 49 to 50 °C.
The compound `Cc1c(N)cccc1OC1CCN(C(=O)OC(C)(C)C)C1` (stereo not drawn) registered a melting point of 137 °C.
In the case of `Cc1[nH]c(=O)c(-c2csc(-c3ccnc(NCCNC(C)C)c3)n2)cc1C(=O)NCCNC(C)C` it was above 260 °C; in that of `O=c1c2ccccc2nc2n1CCc1c-2[nH]c2ccc(Cl)cc12`, 310 to 312 °C.
As for `COc1ccc(-n2cnc3cc(N)ccc32)cc1`, the figure is 44 to 45 °C; as for `CNc1cc(N2CCC(c3ccccc3)CC2)nc(C)n1`, 186 to 188 °C.
As for `Nc1cc(CC(=O)O)cc(C(=O)O)c1`, the figure is 214 to 220 °C.
Regarding `CC(=O)N1CCC(CC(O)c2ccc(N(C)C)cc2)CC1` (stereo not drawn), the melting point lay in the range of 119 to 120 °C.
In the case of `Nc1ncc(CCN2CCN(c3ccccn3)CC2)s1` it was 158 to 161 °C.
`O=C1OC(c2ccccc2)C2CCc3cc(O)ccc3N12` (stereo not drawn) displayed a melting point of 216 °C.
As to `CN1CCN(C(=O)OC2c3ccccc3C(=O)N2c2ccc3ncccc3n2)CC1` (stereo not drawn), the melting point fell in the range of 170 to 171 °C.
In the case of `N#CCCCN1CCN(c2nc3nccc(-c4ccncc4)n3n2)CC1` it was 147 to 148 °C.
As to `COc1cc(OC)c2c(=O)[nH]c(-c3cc(C)c(OCCN4Cc5ccccc5C4)c(C)c3)nc2c1`, the melting point came to 202 °C.
As for `Clc1ccc(-n2cc(Br)cn2)cc1`, the figure is 75 to 76 °C.
`O=C(O)Cc1csc(NC(=O)OCC(Cl)(Cl)Cl)n1` gave a melting point of 164 °C.
As for `CNC(=O)NN(CC(=O)OC)c1ccccc1`, the figure is 122 °C.
Compound `Cc1cccc(C)c1C=NNC(=N)NCc1ccccc1` displayed a melting point of 125 to 126 °C.
In the case of `COC(=O)c1ccc(/C=C(\C)c2ccc3c(c2)N(C)CCN3C)cc1` it was 91 to 93 °C.
On to `CC(=O)c1ccc(OCCCCCCCCCCOc2ccccc2)o1`, for which the melting point fell in the range of 74 to 77 °C.
As for `CC12Cc3cnn(-c4ccc(F)cc4)c3C=C1CCC1OC3(CC=C12)C(=O)NC(=O)NC3=O` (stereo not drawn), the figure is 235 to 236 °C.
Take `O=c1ccc(S(=O)(=O)c2cc3c(=O)[nH]ccc3o2)n[nH]1`: the melting point is above 275 °C.
Turning to `COc1ccccc1CCC(=O)Nc1sc2c(c1C#N)CCN(C(=O)OC(C)(C)C)C2`, the melting point was 198 °C.
For the compound `O=C(O)c1cn(-c2cccs2)c2cc(F)c(F)cc2c1=O`, the melting point lay within 245 to 246 °C.
As for `C[C@]12CCC(=O)N[C@@H]1CCc1cc(SCc3ccccc3)ccc12`, the figure is 172 to 174 °C; as for `CCOCc1nc2c(N)nc3ccccc3c2n1CC1CC(c2ccccc2)N(C)O1` (stereo not drawn), 162 to 163 °C; as for `O=C1CCC(O)(c2ccc(Cl)c(Cl)c2)CN1Cc1ccc(F)cc1` (stereo not drawn), 146 °C.
In the case of `CC(C)(C)C(O)(Cn1cncn1)C1CCC1` (stereo not drawn) it was 94 to 99.5 °C; in that of `CCOC(=O)c1cnc2cc(C(C)(C)C)ccc2c1O`, 279 to 281 °C; in that of `CCCCOc1ccc(S(=O)(=O)C2(C(=O)OCC)CCN(Cc3ccc(F)cc3)CC2)cc1`, 114 °C.
As for `CN1C2=C(CSC2)C(=O)Nc2ccccc21`, the figure is 196 to 198 °C; as for `C[Si](C)(C)O[C@H]1C=C(S(=O)(=O)c2ccccc2)C=CCC1`, 61.9 to 63.8 °C.
Regarding `COc1c(N2CC(C)(N)C3(CC3)C2)c(F)cc2c(=O)c(C(=O)O)cn([C@@H]3C[C@@H]3F)c12` (stereo partly drawn), the melting point lay in the range of 195 to 200 °C.
As for `CN(C(=O)c1sc2cc(C(=O)O)ccc2c1S)c1ccc2sc3ccccc3c(=O)c2c1`, the figure is 210 to 212 °C; as for `FC(F)(F)c1ccccc1NC(=S)N1CCc2c(sc3c2C(c2ccccc2Cl)=NCc2nnc(Cc4ccccc4)n2-3)C1`, 239 to 240 °C.
In the case of `O=c1[nH][nH]c(C(F)(F)F)c1Cc1ccc(Cl)cc1` it was 151 to 152 °C.
Turning to `Cc1cc2c(cc1F)C(C)(C)CCC2(C)C`, the melting point is 90 to 91.8 °C.
In the case of `C/C(=C\c1ccc(OCC(=O)O)cc1)[N+](=O)[O-]` it was 149 to 151 °C; in that of `COc1cc2c(cn1)OCC21C(=O)N(C(c2ccccc2)c2ccccc2)c2ccccc21` (stereo not drawn), 177 to 178 °C; in that of `COc1ccc(-c2ccc(N)nn2)cc1OCC(C)C`, 187 °C.
Compound `CCCc1ccc(S(=O)(=O)n2c(CCC(=O)OC)cc3cc(Cl)ccc32)cc1` showed a melting point of 85 to 88 °C.
As for `NC(=O)C1CCc2[nH]c3cc(Cl)c(F)cc3c2C1` (stereo not drawn), the figure is 245 to 246 °C; as for `Cn1cc(OS(C)(=O)=O)c(=O)c2ccc(S(C)(=O)=O)cc21`, 258 to 260 °C.
As for `CC(=O)OCC1OC(n2cc(C(Cl)=CI)c(=O)[nH]c2=O)CC1OC(C)=O` (stereo not drawn), the figure is 81 to 83 °C; as for `O=C(CCCCl)Nc1ccc2c(c1NC(=O)CCCCl)C(=O)c1ccccc1C2=O`, 154 to 155 °C.
As for `Cc1c(NC(=O)c2ccc(-c3ccc(F)cc3)cc2)ccc2cc(C(C)N3CCCC3)cnc12` (stereo not drawn), the figure is 179 to 182 °C.
Compound `C=CCn1c(=O)c2ccccc2n2c(CCCl)nnc12` yielded a melting point of 142 to 144 °C.
In the case of `CN(C)c1ccc(C2(c3ccc(N(C)C)cc3N(C)C)OC(=O)c3cc(N(C)C)ccc32)cc1` (stereo not drawn) it was 182 to 185 °C; in that of `CCOC(=O)N(CC(=O)NCCc1ccc(OC)c(OC)c1)c1cccc(C(N)=O)c1`, 104 to 105 °C.
`O=Cc1ccc(CBr)c(Cl)c1` came in with a melting point of 64 to 66 °C.
As for `COc1ccc2c(c1)N(CCCCl)c1cccc(S(=O)(=O)N(C)C)c1S2`, the figure is 124 to 126 °C; as for `Cc1cccc2[nH]c(=O)n(CCCN3CC=C(c4cccc(C(F)(F)F)c4)CC3)c(=O)c12`, 158 to 160 °C.
In the case of `COC(=O)C(NS(=O)(=O)c1ccc(-c2ccc(NC(=O)c3oc4cccc(C(C)=O)c4c3C)cc2)cc1)C(C)C` (stereo not drawn) it was 197 to 199 °C; in that of `O=C1NC(=O)/C(=C/c2cn(-c3ccccc3)nc2OCc2ccccc2)S1`, above 300 °C; in that of `COc1ccc(C2=C(c3ccccc3)CCCc3cc(O)ccc32)cc1`, 232 to 233 °C.
In the case of `CCOc1ccc2c(c1)C(C)(c1ccccc1Cl)C(=O)N2S(=O)(=O)c1ccc(NC(=O)N(CC)CC)cc1OC` (stereo not drawn) it was 137 °C; in that of `COc1ccc(OC(=O)C2CCCc3ccc([N+](=O)[O-])cc32)cc1` (stereo not drawn), 109 to 110 °C; in that of `CSC(Oc1cc(C)c2ncc(I)cc2c1)C(=O)NC(C)(C#N)CF` (stereo not drawn), 70 to 79 °C.

A word on the melting point: it is the temperature of the solid-liquid transition.

For the origin of these results see a melting point compilation (Tetko et al.; mined from patent text by program, amines drawn as free bases though some values may be those of a salt).
